From patent US20240217983A1, “GPR119 AGONISTS” (Kallyope, Inc., priority 2021, published 2024)

Target: T1, human GPR119 (hGPR119) (Homo sapiens, UniProt Q8TDV5)
T1 construct: expressed in transfected cells
T1 sequence (Q8TDV5 1-335): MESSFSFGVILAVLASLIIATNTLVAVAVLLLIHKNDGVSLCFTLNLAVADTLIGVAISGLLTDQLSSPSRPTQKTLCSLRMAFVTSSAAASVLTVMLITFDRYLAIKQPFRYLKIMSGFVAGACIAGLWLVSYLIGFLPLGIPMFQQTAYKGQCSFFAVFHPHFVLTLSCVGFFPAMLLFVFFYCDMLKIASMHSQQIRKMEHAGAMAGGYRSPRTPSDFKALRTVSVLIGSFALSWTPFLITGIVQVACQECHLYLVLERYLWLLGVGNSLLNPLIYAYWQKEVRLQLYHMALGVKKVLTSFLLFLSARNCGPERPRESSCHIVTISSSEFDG
Experiment: cAMP accumulation assay (Cisbio cAMP Gs dynamic HTRF kit) in CHO-K1 cells stably expressing human GPR119
Assay type: cell-based
Conditions: 4-parameter fit; for Emax: 1 h, % activity normalized to Max and Min controls; for EC50: 60 minutes at 37° C.
Experimental: CHO-K1 cells stably expressing human GPR119 (hGPR119) were prepared by transfection of a GPR119-carrying plasmid using Lipofectamine 2000 (following manufacturer instructions). A stable cell line was established using the limiting dilution method with geneticine selection. Assay-ready frozen (ARF) cells were prepared and used throughout the study.
The assay was performed in a 384-well plate format using the cAMP Gs dynamic assay kit from Cisbio. ARF cells expressing hGPR119 were thawed, washed and then resuspended in cAMP stimulation buffer at a cell density of 1.1×10^6 cells/mL. Cells were plated at a density of ˜10,000 cells/well (9 μL/well). Dose response curves for the tested compounds were prepared in a cAMP stimulation buffer, containing 0.1% Tween 80 at 4 fold the final concentration. The compounds were then transferred to the cell plates using BRAVO (3 μL/well) and the plates were incubated for 60 minutes at 37° C./5% CO2. Detection buffer (10 μL, prepared as described in the cAMP Gs dynamic kit) were added to each well, and the plates were incubated at ambient temperature for 1 hr.
RT-FRET was measured using a ClarioSTAR plate reader, calculating the ratio between emissions at 665 nm and 620 nm (HTRF ratio). The HTRF ratio for positive (Max) and negative (Min) controls were used to normalize HTRF data and generate values for % activity. EC50 and Max activity values were determined using a standard 4-parameter fit.

Row | SMILES | Emax [%] | EC50 [nM]
1 | O=C(Cc1ccc(OCCC2CCC23CCN(c2ncc(Cl)cn2)CC3)cc1F)N1CCN(C[C@H](O)[C@@H](O)[C@H](O)[C@H](O)CO)CC1 (stereo partly drawn) [Example 113, 2-(4-(2-(7-(5-chloropyrimidin-2-yl)-7-azaspiro[3.5]nonan-1-yl)ethoxy)-2-fluorophenyl)-1-(4-((2S,3R,4R,5R)-2,3,4,5,6-pentahydroxyhexyl)piperazin-1-yl)ethan-1-one] | 50 to 100 | > 10000
2 | COCc1cnc(N2CCC(CCCCOc3cc(F)c(CC(=O)N4CCN(C[C@H](O)[C@@H](O)[C@H](O)[C@H](O)CO)CC4)c(F)c3)CC2)nc1 [Example 101, 2-(2,6-difluoro-4-(4-(1-(5-(methoxymethyl)pyrimidin-2-yl)piperidin-4-yl)butoxy)phenyl)-1-(4-((2S,3R,4R,5R)-2,3,4,5,6-pentahydroxyhexyl)piperazin-1-yl)ethan-1-one] | 100 to 130 | ≤ 100
3 | CCOc1cnc(N2CCC(CCCOc3ccc(CC(=O)N4CCN(C[C@H](O)[C@@H](O)[C@H](O)[C@H](O)CO)CC4)c(F)c3)CC2)nc1 [Example 96, 2-(4-(3-(1-(5-ethoxypyrimidin-2-yl)piperidin-4-yl)propoxy)-2-fluorophenyl)-1-(4-((2S,3R,4R,5R)-2,3,4,5,6-pentahydroxyhexyl)piperazin-1-yl)ethan-1-one] | 100 to 130 | 100 to 1000
4 | O=C(CCCCS(=O)(=O)O)N1C[C@@H]2C[C@H]1CN2C(=O)Cc1ccc(OCCCC2CCN(c3ncc(Cl)cn3)CC2)cc1F [Example 15, 5-((1S,4S)-5-(2-(4-(3-(1-(5-chloropyrimidin-2-yl)piperidin-4-yl)propoxy)-2-fluorophenyl)acetyl)-2,5-diazabicyclo[2.2.1]heptan-2-yl)-5-oxopentane-1-sulfonic acid] | 100 to 130 | ≤ 100

The next lines start with the values.

Row | Emax [%] | EC50 [nM] | SMILES
5 | ≥ 130 | ≤ 100 | O=C(Cc1ccc(OCCCC2CCN(c3ncc(Cl)cn3)CC2)cc1F)N1CC2(CCCN2C[C@H](O)[C@@H](O)[C@H](O)[C@H](O)CO)C1 [Example 61, 2-(4-(3-(1-(5-chloropyrimidin-2-yl)piperidin-4-yl)propoxy)-2-fluorophenyl)-1-(5-((2S,3R,4R,5R)-2,3,4,5,6-pentahydroxyhexyl)-2,5-diazaspiro[3.4]octan-2-yl)ethan-1-one]
6 | 100 to 130 | ≤ 100 | O=C(Cc1ccc(OCCCC2CCN(c3ncc(Cl)cn3)CC2)cc1F)N1CCN(C[C@H](O)[C@@H](O)[C@H](O)[C@H](O)CO)CC1 [Example 27, 2-(4-(3-(1-(5-chloropyrimidin-2-yl)piperidin-4-yl)propoxy)-2-fluorophenyl)-1-(4-((2S,3R,4R,5R)-2,3,4,5,6-pentahydroxyhexyl)piperazin-1-yl)ethan-1-one]
7 | 100 to 130 | ≤ 100 | O=C(Cc1ccc(OCCCC2CCN(c3ncc(Cl)cn3)CC2)cc1F)N1C[C@@H]2C[C@H]1CN2C[C@H](O)[C@@H](O)[C@H](O)[C@H](O)CO [Example 55, 2-(4-(3-(1-(5-chloropyrimidin-2-yl)piperidin-4-yl)propoxy)-2-fluorophenyl)-1-((1S,4S)-5-((2S,3R,4R,5R)-2,3,4,5,6-pentahydroxyhexyl)-2,5-diazabicyclo[2.2.1]heptan-2-yl)ethan-1-one]
8 | 100 to 130 | ≤ 100 | O=C(Cc1ccc(OCCCC2CCN(c3ncc(Cl)cn3)CC2)cc1F)N1CC2(C1)N(C[C@H](O)[C@H](O)[C@H](O)CO)CC2(F)F [Example 62, 2-(4-(3-(1-(5-chloropyrimidin-2-yl)piperidin-4-yl)propoxy)-2-fluorophenyl)-1-(3,3-difluoro-1-((2S,3S,4R)-2,3,4,5-tetrahydroxypentyl)-1,6-diazaspiro[3.3]heptan-6-yl)ethan-1-one]
9 | ≥ 130 | ≤ 100 | O=C(Cc1ccc(OCCCC2CCN(c3ncc(Cl)cn3)CC2)cc1F)N1CCC2(CCCN2C[C@H](O)[C@@H](O)[C@H](O)[C@H](O)CO)C1 (stereo in doubt) [Example 75, 2-(4-(3-(1-(5-chloropyrimidin-2-yl)piperidin-4-yl)propoxy)-2-fluorophenyl)-1-(1-((2S,3R,4R,5R)-2,3,4,5,6-pentahydroxyhexyl)-1,7-diazaspiro[4.4]nonan-7-yl)ethan-1-one]
